Measurements as given in patent US20180100153A1, “Method and kit for use in inhiiting tumor progression, predicting or determining tumor progression state in VGF expressing cancers” (Truebio LLC, priority 2016, published 2018).

Legend:
HCC827GR cells [1] = assay: IC50 analysis via alamarBlue assay, HCC827GR versus HCC827; assay type: cell-based
[2] = test system: HCC827GR/tet-on control cells; assay: Xenograft assay with doxycycline; assay type: in vivo, nude mice; details: daily oral Dox for 30 days
Procedure: FIG. 13 illustrates VGF as a therapeutic target. (FIG. 13A) Q-PCR (left) analysis for VGF expression and clonogenic assay (right) in HCC827GR/tet-on control cells. […] (FIG. 13B) Xenograft assay for assessing the effect of doxycycline treatment on tumor growth. HCC827GR/tet-on control cells were injected subcutaneously into nude mice. 32 days after cancer cell injection, mice were treated with or without daily oral doxycycline (Dox) for another 30 days. Tumor volume was monitored over time as indicated (left). Tumor weight was measured after harvest (upper right). The representative photographs illustrate tumor growth 30 days after Dox or normal saline treatment (lower right). ns means no significant (n=6 mice/group). (FIG. 13C) Q-PCR (left) analysis for VGF expression and clonogenic assay (right) in HCC827GR/tet-on shVGF cells in which shVGF was induced by doxycycline (Dox). […] HCC827GR/tet-on-shVGF cells were injected subcutaneously into nude mice. 32 days after cancer cell injection, mice were treated with or without daily oral doxycycline (Dox) for another 30 days. Tumor volume was monitored over time as indicated (left). Tumor weight was measured after harvest (upper right). The representative photographs illustrate tumor growth 30 days after Dox or normal saline treatment (lower right). Scale bar, 1 mm. Error bars indicate the SEM (n=6 mice/group; *P<0.05). […]

[3] = test system: lung adenocarcinoma harboring EGFR mutations (exon 19 deletions or the L858R mutation); details: References 5 to 10; cited from earlier work
HCC827GR cells [4] = assay: Western blot of apoptosis markers (activated caspase 3, cleaved PARP); assay type: cell-based; details: gefitinib 1 μM, 24 hr
[5] = test system: HCC827GR cells infected with shVGF; assay: alamarBlue cell viability assay after VGF knockdown; assay type: cell-based; details: HCC827GR cells with VGF-silencing, gefitinib 3 days, FIG. 3F
Excerpt: FIG. 3 illustrates expression of VGF in EGFR-TKI resistant lung cancer cells. […] Tubulin served as a loading control. (FIG. 3B) Q-PCR analysis (left) for measuring the expression of VGF in HCC827GR-2, an independently selected EGFR-TKI resistant HCC827 pool, versus and HCC827 cells. Tubulin served as a loading control. Gene expression analysis (right) for VGF expression in HCC827 and EGFR-TKI resistant clones (ER3 and T15-2) from the database of GSE38310. (FIG. 3C) Gene expression analysis for VGF expression in different subtypes of lung cancer cell lines from the database of […] (CCLE). SCLC: small cell lung cancer; ADC: adenocarcinoma; SCC: squamous cell carcinoma. […] (FIG. 3E) Q-PCR analysis (left) and western blotting (right) for measuring VGF expression in HCC827GR cells infected with lentiviral vectors encoding shVGF (shVGF) or scrambled control (SC). shVGF#1 and shVGF#2 target different regions in VGF mRNA.
To identify genes involved in EGFR-TKI resistance and EMT in lung adenocarcinoma, a gene expression profiling assay followed by Q-PCR analysis were performed in HCC827GR versus HCC827 cells (FIG. 3A, upper). […] . […] Consistently, the expression of VGF was elevated in the independently isolated TKI resistance HCC827 cells (FIGS. 3B and 10). […] The inventors further examined VGF levels in cell lines derived from different subtypes of lung cancer. […] .

HEK293T cells = assay: Clonogenic analysis of VGF mutants under low serum stress; assay type: cell-based; details: transfected HEK293T cells, DMEM with 1% FBS, 10 days
Excerpt: FIG. 18 illustrates effect of VGF mutants on low serum stress. (FIG. 18A) Schematic representation of VGF deletion mutations (FIG. 18B) A table summarizing clonogenic analysis of HEK293T cells transfected with expression vector encoding empty control (Ctrl), full-length VGF cDNA (VGF), or truncated VGF cDNA as described in the FIG. 18A under the growth of DMEM supplement with 1% FBS for 10 days.
The effect of VGF mutants on low serum stress was examined (FIG. 18). Clonogenic analysis of HEK293T cells transfected with expression vector encoding empty control, full-length VGF cDNA, or truncated VGF cDNA under the growth of DMEM supplement with 1% FBS for 10 days were summarized in FIG. 18B.

For `C=CC(=O)Nc1cc(Nc2nccc(-c3cn(C)c4ccccc34)n2)c(OC)cc1N(C)CCN(C)C` [AZD9291], the “IC50 analysis (EGFR-TKI resistance)” value (HCC827GR cells [1]) was “resistance”.

With `C[C@H]1c2cccc(O)c2C(=O)C2=C(O)[C@]3(O)C(=O)C(C(N)=O)=C(O)[C@@H](N(C)C)[C@@H]3[C@@H](O)[C@@H]21` [Dox, doxycycline] the tumor growth [2] was “no effect”.

In the case of `C#Cc1cccc(Nc2ncnc3cc(OCCOC)c(OCCOC)cc23)c1` [erlotinib], the therapeutic response [3] is given as “profound therapeutic responses”.

With `COc1cc2ncnc(Nc3ccc(F)c(Cl)c3)c2cc1OCCCN1CCOCC1` [gefitinib] the “expression of activated caspase 3 and PARP (apoptosis)” value (HCC827GR cells [4]) was “resistant to gefitinib-induced apoptosis” and the “cell viability (sensitivity to gefitinib)” value [5] was “sensitive”.

B1: VGF 1-615: full length VGF, expressed from full-length VGF cDNA vector (protein, UniProt O15240 1-615, looked up)
chain: MKALRLSASALFCLLLINGLGAAPPGRPEAQPPPLSSEHKEPVAGDAVPGPKDGSAPEVRGARNSEPQDEGELFQGVDPRALAAVLLQALDRPASPPAPSGSQQGPEEEAAEALLTETVRSQTHSLPAPESPEPAAPPRPQTPENGPEASDPSEELEALASLLQELRDFSPSSAKRQQETAAAETETRTHTLTRVNLESPGPERVWRASWGEFQARVPERAPLPPPAPSQFQARMPDSGPLPETHKFGEGVSSPKTHLGEALAPLSKAYQGVAAPFPKARRPESALLGGSEAGERLLQQGLAQVEAGRRQAEATRQAAAQEERLADLASDLLLQYLLQGGARQRGLGGRGLQEAAEERESAREEEEAEQERRGGEERVGEEDEEAAEAEAEAEEAERARQNALLFAEEEDGEAGAEDKRSQEETPGHRRKEAEGTEEGGEEEDDEEMDPQTIDSLIELSTKLHLPADDVVSIIEEVEEKRKRKKNAPPEPVPPPRAAPAPTHVRSPQPPPPAPAPARDELPDWNEVLPPWDREEDEVYPPGPYHPFPNYIRPRTLQPPSALRRRHYHHALPPSRHYPGREAQARRAQEEAEAEERRLQEQEELENYIEHVLLRRP
modifications: full-length
notes: full length VGF, expressed from full-length VGF cDNA vector
For B1, the “cell survival in clonogenic analysis” value (HEK293T cells) was “survived”.
